We go through 2 molecules from patent publication US8026282B2, “Phenoxyalkylcarboxylic acid derivatives in the treatment of irritable bowel syndrome” (Medicinova, Inc., priority 2004, dated 2011).

For one data set, the target named is T1, Adrenergic α2B (Homo sapiens, UniProt P18089).
T1 sequence (P18089 1-450): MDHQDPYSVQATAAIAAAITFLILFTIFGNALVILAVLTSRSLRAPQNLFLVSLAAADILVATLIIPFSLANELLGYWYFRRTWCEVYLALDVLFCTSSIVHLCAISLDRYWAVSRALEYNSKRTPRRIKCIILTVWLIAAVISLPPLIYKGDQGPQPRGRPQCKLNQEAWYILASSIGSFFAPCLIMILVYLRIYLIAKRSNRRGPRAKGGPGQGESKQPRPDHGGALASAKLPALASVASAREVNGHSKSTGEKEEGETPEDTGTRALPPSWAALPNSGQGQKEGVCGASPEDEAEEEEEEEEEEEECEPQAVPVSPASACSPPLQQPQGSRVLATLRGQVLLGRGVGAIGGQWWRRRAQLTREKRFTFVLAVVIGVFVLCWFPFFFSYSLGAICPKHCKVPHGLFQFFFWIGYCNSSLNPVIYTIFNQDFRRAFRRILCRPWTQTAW
As to the kind of experiment: Biochemical assay Adrenergic α2B. The format is binding. The settings on record: Hu; for Ki: value in parentheses.

A further data set relates to IBS/ulcerative colitis. As to the kind of experiment: Example 9: patient with IBS/ulcerative colitis symptoms. Format: in vivo, human. The settings on record: 750 mg tablets three times per day for at least two months; present-tense example. Here is the method:
A person complains of symptoms associated with IBS/ulcerative colitis, including diarrhea with discharge of mucus and blood, cramping abdominal pain, and inflammation and edema of the mucous membrane with patches of ulceration. The patient is treated with tablets containing 750 mg of compound (1), three times per day, for at least two months. […] Similar positive results are observed for other patients complaining of the same or similar symptoms attributable to IBS or ulcerative colitis.

A further data set addresses LTB4 (Homo sapiens, UniProt Q15722). Briefly: Biochemical assay LTB4. Format: binding. The settings on record: LTB4, Hu.
A further data set concerns the target Melanocortin MC5 (Homo sapiens, UniProt P33032). Briefly: Biochemical assay Melanocortin MC5. Format: binding. The settings on record: Melanocortin MC5, Hu; for Ki: value in parentheses.
A further data set concerns rat bladder. As to the kind of experiment: Ovalbumin-sensitized rat model of inflammation-induced bladder hyperactivity (cystometry). Format: in vivo, Sprague-Dawley rats. As to conditions: for NVC/minute: 60 minutes prior. Here is the method: Sprague-Dawley rats (n=50; […]) were utilized for this study. The animals were divided into 5 groups (n=10). The first group served as the control and the second group was sensitized with ovalbumin (OA). The third, fourth, and fifth groups were also sensitized as described but subjected to oral gavaging with Compound 1 prior to acute ovalbumin challenge.
Sensitization of the animals was accomplished with an intraperitoneal injection of a mixture of 1 mg OA and 100 mg aluminum hydroxide suspended in 1 mL of saline. Fourteen days later, these sensitized rats were anaesthetized with a subcutaneous injection of urethane (1.2 g/kg) for intravesical OA (10 mg/mL) administration and evaluation of bladder hyperactivity. The animals in group 1 received saline (control), group 2 animals received about 2 mL of OA (10 mg/mL OA in sterile saline) and animal groups 3-5 animals received oral 1 (10, 30, 50 mg/kg in gum acacia suspension) 60 minutes prior to acute OA challenge (2 mL of 10 mg/mL OA).
All animals were subjected to evaluation of bladder hyperactivity. Briefly, a 1 cm incision was made along the centerline of the lower ventral abdomen. The bladder was exteriorized, and catheterized by means of a polyethylene tube (PE 50, Clay Adams) inserted into the bladder dome and sutured in place using a 2-0 braided silk suture. The bladder was returned to the abdomen, with the catheter line escaping through the incision. The catheter was then connected to a pressure transducer (UFI, Morro Bay, Calif.) and in turn, connected to an infusion pump (Harvard Apparatus, MA). During the continuous filling bladder cystometry, the pressure was recorded with the transducer using the program LabVIEW (National Instruments, TX).
For cystometry (See, Chuang Y C, Chancellor M B, Seki S, Yoshimura N, Tyagi P, Huang L, Lavelle J P, De Groat W C and Fraser M O: Intravesical protamine sulfate and potassium chloride as a model for bladder hyperactivity. Urology (2003) 61:664-70), the bladder was first infused with warm 0.9% saline (37° C.) at 40 μL/min (2.4 mL/hr) and at least 20 minutes of stable voiding cycles were recorded during infusion. This process was followed by intravesical infusion of OA (10 mg/mL) and bladder contractions were recorded. Frequency of contractions (voids), inter-contractile interval (ICI), and non-voiding contractions (NVC) were calculated from these recordings.

The target in a further data set is T2, 5-LO (Homo sapiens, UniProt P09917).
T2 sequence (P09917 1-674): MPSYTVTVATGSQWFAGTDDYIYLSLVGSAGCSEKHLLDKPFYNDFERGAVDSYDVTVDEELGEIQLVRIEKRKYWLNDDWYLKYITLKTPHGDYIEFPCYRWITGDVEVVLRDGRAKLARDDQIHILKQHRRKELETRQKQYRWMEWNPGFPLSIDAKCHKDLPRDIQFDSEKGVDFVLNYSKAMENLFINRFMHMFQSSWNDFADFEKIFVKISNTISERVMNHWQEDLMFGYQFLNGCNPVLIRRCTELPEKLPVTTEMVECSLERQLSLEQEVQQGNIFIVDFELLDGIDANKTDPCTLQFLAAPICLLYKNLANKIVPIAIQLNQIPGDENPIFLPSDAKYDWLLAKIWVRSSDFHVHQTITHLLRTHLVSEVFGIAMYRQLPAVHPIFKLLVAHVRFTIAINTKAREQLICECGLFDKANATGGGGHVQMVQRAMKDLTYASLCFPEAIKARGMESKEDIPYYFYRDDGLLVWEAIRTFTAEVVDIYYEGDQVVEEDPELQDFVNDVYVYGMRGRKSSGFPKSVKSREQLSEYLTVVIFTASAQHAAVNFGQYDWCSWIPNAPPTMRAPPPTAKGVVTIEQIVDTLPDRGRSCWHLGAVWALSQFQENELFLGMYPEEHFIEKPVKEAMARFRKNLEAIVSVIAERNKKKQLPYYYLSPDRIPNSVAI
Briefly: Biochemical assay 5-LO. The settings on record: Hu.

Data set [1] can be described thus: Form present in human plasma. Format: in vivo. The settings on record: metabolite of compound 1, human plasma.

Structures are written as SMILES.

What is called IC50 is the midpoint of a concentration-inhibition curve. By Ki is commonly meant a dissociation constant, usually derived from enzyme kinetics or from competition with a known ligand.

Sequence of Melanocortin MC5 (P33032 whole entry): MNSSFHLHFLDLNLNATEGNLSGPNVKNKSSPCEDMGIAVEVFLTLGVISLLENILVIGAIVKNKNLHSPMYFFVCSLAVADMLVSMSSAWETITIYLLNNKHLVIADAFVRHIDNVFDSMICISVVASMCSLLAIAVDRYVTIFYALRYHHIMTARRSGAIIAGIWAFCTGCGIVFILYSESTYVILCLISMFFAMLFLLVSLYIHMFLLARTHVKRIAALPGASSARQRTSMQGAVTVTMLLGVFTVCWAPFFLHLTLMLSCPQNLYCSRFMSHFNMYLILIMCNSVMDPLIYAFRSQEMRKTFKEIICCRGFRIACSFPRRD
Sequence of LTB4 (Q15722 whole entry): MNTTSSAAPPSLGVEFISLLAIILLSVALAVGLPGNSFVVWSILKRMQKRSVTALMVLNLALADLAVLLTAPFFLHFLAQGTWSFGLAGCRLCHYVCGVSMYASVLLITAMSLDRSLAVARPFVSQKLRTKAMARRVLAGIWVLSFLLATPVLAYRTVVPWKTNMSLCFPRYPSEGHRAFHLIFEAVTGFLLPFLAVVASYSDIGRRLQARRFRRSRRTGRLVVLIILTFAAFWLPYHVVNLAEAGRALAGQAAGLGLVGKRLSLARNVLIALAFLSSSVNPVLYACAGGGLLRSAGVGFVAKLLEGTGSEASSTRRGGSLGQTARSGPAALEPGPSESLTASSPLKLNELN

Consider `CCCc1c(SCCCOc2ccc(C(C)=O)c(OCCCC(=O)O)c2CCC)ccc(C(C)=O)c1O` [Compound 1, 4-[6-acetyl-3-[3-(4-acetyl-3-hydroxy-2-propylphenylthio)propoxy]-2-propylphenoxy]butyric acid], for which the IC50 against Adrenergic α2B turned out to be 2810 nM; against LTB4, 9020 nM; at Melanocortin MC5 it was 2580 nM; against 5-LO it was 1110 nM. Besides, the Ki is 1280 nM on Adrenergic α2B, 2290 nM on LTB4 (value in parentheses) and 2420 nM at Melanocortin MC5. Further, in the data set with IBS/ulcerative colitis, the “symptoms of IBS/ulcerative colitis reported by patient” value is reported as “positive effects”. Besides, the NVC/minute is reported as 0.4700 ± 0.1221 NVC/minute in the data set on rat bladder (Group 3: OA (10 mg/mL) infusion after oral 10 mg/kg, n = 10, NS compared to Group 2 (OA alone 0.9400 ± 0.2473)); 0.3444 ± 0.06894 NVC/minute in the data set on rat bladder (Group 4: OA (10 mg/mL) infusion after oral 30 mg/kg, n = 9, P < 0.05 compared to Group 2); 0.1778 ± 0.08296 NVC/minute in the data set on rat bladder (Group 5: OA (10 mg/mL) infusion after oral 50 mg/kg, n = 9, P < 0.05 compared to Group 2). For the same molecule, the voiding frequency entry in the data set on rat bladder (control (group 1) versus treatment groups (2-5)) is listed as “No significant differences”. The “OA-induced changes in NVC and ICI” value in the data set on rat bladder (pre-treatment, oral 10, 30, 50 mg/kg) is given as “dose-dependent inhibition”. In addition, in the data set on rat bladder (pre-treatment, preferably at 30 and 50 mg/kg), the “protection against OA-induced changes (increase in NVC, decrease in ICI)” value is “significant protection”.
For the molecule `CCCc1c(SCCCOc2ccc(C(C)O)c(OCCCC(=O)O)c2CCC)ccc(C(C)=O)c1O` (centres unmarked) [Compound 2], the results for the IC50 at Adrenergic α2B, on Melanocortin MC5 and on 5-LO were 1600 nM, 1820 nM and 1610 nM, respectively. Also, the Ki was 732 nM on Adrenergic α2B and 1710 nM on Melanocortin MC5. Besides, the “form in human plasma” value in data set [1] is on record as “dominant form”.
